Entries after “also recorded” stand apart in the source; their conditions may differ.
Assays:
[1] = Non-Patent Literatures 2 and 8; cited from earlier work
[2] = system: cancer pain animal models; conditions: pregabalin; Non-Patent Literature 2; cited from earlier work
central nervous system = conditions: rats; Table 2 in Non-Patent Literature 9; cited from earlier work
[3] = system: cancer pain model rats (MRMT-1 rat breast cancer cells, bone metastasis model); experiment: Measurement of pain threshold in bone metastasis cancer pain model rats (Dynamic Plantar Aesthesiometer); assay type: in vivo, Crl:CD (SD); conditions: 10 mg/kg and 30 mg/kg, oral
Procedure: Five-week-old female Crl:CD (SD) SPF rats (Charles River Japan) were injected with MRMT-1 cells (rat breast cancer cells) at 3×10^4 cells/20 μL/body into the medullary cavity at the proximal end of the diaphysis of the right tibia to create a bone metastasis model (day 0). On day 10 after the transplantation of the cancer cells (day 10), the rats were divided into 4 groups of 8 rats each: a control group (with administration of distilled water (trade name: Otsuka Distilled Water) manufactured by Otsuka Pharmaceutical Factory, Inc.), a 10 mg/kg compound A administration group, a 30 mg/kg compound A administration group, and a morphine administration group, as shown in Table 1 below. On day 11 after the transplantation of the cancer cells (day 11), each drug was orally or subcutaneously administered to the rats at a dose of 2 mL/kg. The pain threshold (g) of the plantar surface of the right hind paw was measured using a Dynamic Plantar Aesthesiometer (37450, Ugo Basile) under blinded conditions 1, 3, 6, and 24 hours after the administration. The average value of the pain threshold-time area under the curve (AUC) (g·hr) for 24 hours post-administration was determined for each group.

mice = experiment: Measurement of spontaneous locomotor activity (Supermex); assay type: in vivo, mouse, ICR
Procedure: Five-to six-week-old male ICR-SPF mice (Japan SLC, Inc.) were divided into 5 groups of 8 mice each: a control group (with administration of distilled water (trade name: Otsuka Distilled Water) manufactured by Otsuka Pharmaceutical Factory, Inc.), two 10 mg/kg compound A administration groups, and two 30 mg/kg compound A administration groups, as shown in Table 2 below. Compound A or distilled water at a dose of 10 mL/kg was orally administered to the mice. One or three hours after the administration of compound A or distilled water, the mice were transferred to a measurement cage, and spontaneous locomotor activity was measured for 30 minutes using Supermex (registered trademark) (Muromachi Kikai Co., Ltd.).

rats = experiment: Measurement of coordinated motor ability (rotarod); assay type: in vivo, rat, SD
Procedure: Five- to six-week-old male SD-SPF rats (Japan SLC, Inc.) were used in this experiment. The experimental schedule included training using a rotarod (SN445, Shinano Seisakusyo) for 3 days (6 times a day), starting from 3 days before the day of administration. On the day of administration, pre-values (time to stay on the rotarod before the administration of compound A or distilled water) were measured twice, and the rats that spent 180 seconds or more on the rotarod in either of the two measurements were selected. The rats were divided into 3 groups of 6 rats each: a control group (with administration of distilled water (trade name: Otsuka Distilled Water) manufactured by Otsuka Pharmaceutical Factory, Inc.), a 10 mg/kg compound A administration group, and a 30 mg/kg compound A administration group, as shown in Table 3 below. Compound A or distilled water was orally administered to the rats at a dose of 10 mL/kg, and the time to stay on the rotarod was measured 1, 3, 6, and 24 hours after the administration under the test conditions of 10 rotations/min with a cutoff of 180 seconds.

serotonin 3 receptor = conditions: Patent Literatures 1 and 2; cited from earlier work
[4] = summary of Experiments 1 and 2, 10 to 30 mg/kg

Row | SMILES | side effects [1] | effect in cancer pain animal models [2] | influence on central nervous system relative to analgesic dose (central nervous system) | cancer pain threshold compared to control group ([3]; single dose, right hind paw, measured 1, 3, 6 and 24 h after administration, Dunnett's test, critical value of 1%, n = 8, FIG. 1) | pain threshold-time area under the curve (AUC) compared to subcutaneous morphine ([3]; versus morphine 3 mg/kg subcutaneous, up to 24 h after administration) | changes in spontaneous locomotor activity compared to control group (mice; 10 mg/kg and 30 mg/kg, oral, 1 or 3 h after administration, measured for 30 min, Dunnett's test, critical value of 5%, n = 8, FIG. 2) | suppression of spontaneous locomotor activity at a dose that induces an analgesic effect (mice; [4]) | changes in coordinated motor ability (time to stay on the rotarod) compared to control group (rats; 10 mg/kg and 30 mg/kg, oral, 1, 3, 6 and 24 h after administration, 10 rotations/min, cutoff 180 s, Dunnett's or Steel's test, critical value of 5%, n = 6, FIG. 3) | suppression of coordinated motor ability at a dose that induces an analgesic effect (rats; [4]) | activity at serotonin 3 receptor (serotonin 3 receptor)
1 | CC(C)C[C@H](CN)CC(=O)O [Pregabalin] | sedative effects such as dizziness, drowsiness, and loss of consciousness | effective in cancer pain animal models | suppresses the functions of the central nervous system (inhibits coordinated motor ability) at a dose lower than that is required to exert an analgesic effect |  |  |  |  |  |  | 
2 | NC1CCN(c2cccc(Cl)n2)CC1 [compound A, 1-(6-chloropyridin-2-yl) piperidin-4-amine] |  |  |  | significant difference was observed; also recorded: significantly increased | no statistically significant difference | No statistical difference was observed; also recorded: no significant changes | does not suppress spontaneous locomotor activity | No statistically significant difference was observed; also recorded: no significant changes | does not suppress spontaneous locomotor activity or coordinated motor ability | serotonin 3 receptor agonist
